Results reported in patent US20120094007A1, “METHOD FOR THE IMMOBILIZATION OF CATIONIC ACTIVE INGREDIENTS ON SURFACES” (BASF SE, priority 2010, published 2012).
Where no end group is shown, it is not given here.

How the values were obtained:
[1] = system: Staphylococcus epidermidis DSM1798; assay: static biofilm assay on antimicrobially finished silicone surfaces (cfu/cm^2); format: cell-based; conditions: silicone surface, conjugates adsorbed alone from 10 mg/ml (P18 equivalents) in PBS; after washing
Protocol: (§1) The effect of the antimicrobial finishing of the investigated surfaces was determined by means of a […] biofilm assay. For this, the surfaces to be tested were cut into round disks which fit into the holes of 24-well microtiter plates. In order to prevent the surfaces from slipping during the assay, the surfaces were immobilized on the bottom of the microtiter plates with the help of glass joint grease. The formation of biofilms was carried out starting from a preculture. For this, 20 ml of the standard commercial TSBY medium (Difco Laboratories, MI, USA) were inoculated with the help of a steady-state overnight culture of Staphylococcus epidermidis DSM1798, Escherichia coli DSM 5698, Proteus mirabilis DSM 4479 or Escherichia coli BL21 (DE3) with an optical density of 0.1. The preculture was incubated for 2 to 4 hours with agitation (at 200 rpm) and 37° C. until an optical density of from 2 to 3 was reached. In order to start the biofilm assay, the preculture was diluted to an optical density of 0.0004 in 5% TSBY in saline (0.9% NaCl) (ca. 10^5 cfu/ml). 1 ml of this was placed onto the surfaces in the 24-well plate and then incubated at 37° C. with gentle vibration at 50 rpm (revolutions per minute), so that a biofilm could form on the surface. The biofilm on the surfaces was analyzed after one hour (1 h) and after 24 hours (24 h) (and optionally 5 hours). For this, the planktonic cells were removed. The surfaces were then removed from the microtiter plate and briefly washed in sodium chloride solution, saline (0.9% NaCl). The adherent cells in the biofilm were then detached from the surface by means of an ultrasound treatment. For this purpose, the surfaces were transferred to a Falcon tube (50 ml volume) with 2 ml of saline and subjected to ultrasound for five minutes in an ultrasound water bath. The resulting bacterial suspension was diluted and plated out on TSBY agar plates. After 18 hours at 37, the resulting colonies were counted and back-calculated to the number of cells on the surface.

Escherichia coli = assay: as above; format: cell-based; conditions: silicone surface, after intensive washing
Protocol: as §1

Substance: PEI-P18 conjugates: polyethyleneimine (25 KDa) activated with SMCC and reacted with P18cys (KWKLFKKIPKFLHLAKKFC; SEQ ID NO: 27) (also: conjugated to polyethyleneimine (25 kDa) via SMCC)
- formation of a biofilm due to S. epidermidis [1]: able to prevent the formation of a biofilm
- biofilm formation by E. coli (Escherichia coli; conjugates adsorbed alone from 10 mg/ml (P18 equivalents) in PBS): not retained on the surface so strongly that after intensive washing enough active ingredient is present to prevent biofilm formation
- biofilm formation by E. coli (Escherichia coli; two-step method: hydrophobin A coating (0.5 mg/ml), then conjugates 10 mg/ml (P18 equivalents) in PBS): effective even after intensive washing
